In the supplement of paper PMC10307832:

Experiments:
Experiment in all cases: relative viability (nuclei count vs DMSO), 5 days (fraction); higher = more cells survive
[1] = tested on: NCI-H1734
How it was run: (§1)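 One day after seeding in 1536-well plates, lung cancer cell lines were dosed by pin tool. Dosing was either single-drug or a fixed anchor-drug dose plus five library-drug doses (not always all listed) in √10 steps. After 5 days, nuclei were stained in one fix-and-stain step and counted on 4× images, and relative viability is the nuclei count of treated wells over that of vehicle wells, given as the median of duplicate plates.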

[2] = tested on: NCI-H1755
How it was run: as §1

[3] = tested on: NCI-H596
How it was run: as §1

[4] = tested on: NCI-H2342
How it was run: as §1

[5] = tested on: LK-2
How it was run: as §1

[6] = tested on: LCLC-97TM1
How it was run: as §1

[7] = tested on: HCC-78
How it was run: as §1

[8] = tested on: NCI-H2126
How it was run: as §1

[9] = tested on: NCI-H1944
How it was run: as §1

[10] = tested on: NCI-H1975
How it was run: as §1

[11] = tested on: PC-3 [JPC-3]
How it was run: as §1

[12] = tested on: NCI-H2405
How it was run: as §1

[13] = tested on: ChaGo-K-1
How it was run: as §1

[14] = tested on: NCI-H1648
How it was run: as §1

[15] = tested on: NCI-H23
How it was run: as §1

[16] = tested on: NCI-H1993
How it was run: as §1

[17] = tested on: NCI-H1650
How it was run: as §1

[18] = tested on: NCI-H460
How it was run: as §1

[19] = tested on: NCI-H358
How it was run: as §1

[20] = tested on: NCI-H2228
How it was run: as §1

Structure (SMILES): Cc1cn(-c2cc(NC(=O)c3ccc(C)c(Nc4nccc(-c5cccnc5)n4)c3)cc(C(F)(F)F)c2)cn1 [Nilotinib] + Nc1nc2[nH]cc(CCc3ccc(C(=O)N[C@@H](CCC(=O)O)C(=O)O)cc3)c2c(=O)[nH]1 [Pemetrexed] (partner 0.2 µM)
- relative viability ([1]; first compound 0.001 µM): 0.443
- relative viability ([1]; first compound 0.003162 µM): 0.346
- relative viability ([1]; first compound 0.01 µM): 0.364
- relative viability ([1]; first compound 0.03162 µM): 0.388
- relative viability ([1]; first compound 0.1 µM): 0.31
- relative viability ([2]; first compound 0.001 µM): 0.41
- relative viability ([2]; first compound 0.003162 µM): 0.383
- relative viability ([2]; first compound 0.01 µM): 0.328
- relative viability ([2]; first compound 0.03162 µM): 0.306
- relative viability ([2]; first compound 0.1 µM): 0.361
- relative viability ([3]; first compound 0.001 µM): 0.49
- relative viability ([3]; first compound 0.003162 µM): 0.423
- relative viability ([3]; first compound 0.01 µM): 0.491
- relative viability ([3]; first compound 0.03162 µM): 0.513
- relative viability ([3]; first compound 0.1 µM): 0.371
- relative viability ([4]; first compound 0.001 µM): 0.718
- relative viability ([4]; first compound 0.003162 µM): 0.753
- relative viability ([4]; first compound 0.01 µM): 0.793
- relative viability ([4]; first compound 0.03162 µM): 0.718
- relative viability ([4]; first compound 0.1 µM): 0.428
- relative viability ([5]; first compound 0.001 µM): 0.184
- relative viability ([5]; first compound 0.003162 µM): 0.3
- relative viability ([5]; first compound 0.01 µM): 0.332
- relative viability ([5]; first compound 0.03162 µM): 0.193
- relative viability ([5]; first compound 0.1 µM): 0.225
- relative viability ([6]; first compound 0.001 µM): 0.18
- relative viability ([6]; first compound 0.003162 µM): 0.165
- relative viability ([6]; first compound 0.01 µM): 0.175
- relative viability ([6]; first compound 0.03162 µM): 0.183
- relative viability ([6]; first compound 0.1 µM): 0.0978
- relative viability ([7]; first compound 0.001 µM): 0.897
- relative viability ([7]; first compound 0.003162 µM): 0.654
- relative viability ([7]; first compound 0.01 µM): 0.836
- relative viability ([7]; first compound 0.03162 µM): 0.8
- relative viability ([7]; first compound 0.1 µM): 0.935
- relative viability ([8]; first compound 0.001 µM): 0.68
- relative viability ([8]; first compound 0.003162 µM): 0.767
- relative viability ([8]; first compound 0.01 µM): 0.79
- relative viability ([8]; first compound 0.03162 µM): 0.656
- relative viability ([8]; first compound 0.1 µM): 0.47
- relative viability ([9]; first compound 0.001 µM): 0.56
- relative viability ([9]; first compound 0.003162 µM): 0.519
- relative viability ([9]; first compound 0.01 µM): 0.566
- relative viability ([9]; first compound 0.03162 µM): 0.578
- relative viability ([9]; first compound 0.1 µM): 0.265
- relative viability ([10]; first compound 0.001 µM): 0.294
- relative viability ([10]; first compound 0.003162 µM): 0.298
- relative viability ([10]; first compound 0.01 µM): 0.257
- relative viability ([10]; first compound 0.03162 µM): 0.211
- relative viability ([10]; first compound 0.1 µM): 0.235
- relative viability ([11]; first compound 0.001 µM): 1.02
- relative viability ([11]; first compound 0.01 µM): 0.889
- relative viability ([11]; first compound 0.03162 µM): 1.05
- relative viability ([11]; first compound 0.1 µM): 0.599
- relative viability ([12]; first compound 0.001 µM): 1.03
- relative viability ([12]; first compound 0.003162 µM): 0.91
- relative viability ([12]; first compound 0.01 µM): 0.924
- relative viability ([12]; first compound 0.03162 µM): 0.699
- relative viability ([12]; first compound 0.1 µM): 0.614
- relative viability ([13]; first compound 0.001 µM): 0.27
- relative viability ([13]; first compound 0.003162 µM): 0.244
- relative viability ([13]; first compound 0.01 µM): 0.228
- relative viability ([13]; first compound 0.03162 µM): 0.229
- relative viability ([13]; first compound 0.1 µM): 0.215
- relative viability ([14]; first compound 0.001 µM): 0.792
- relative viability ([14]; first compound 0.003162 µM): 0.685
- relative viability ([14]; first compound 0.01 µM): 0.726
- relative viability ([14]; first compound 0.03162 µM): 0.506
- relative viability ([14]; first compound 0.1 µM): 0.685
- relative viability ([15]; first compound 0.001 µM): 0.739
- relative viability ([15]; first compound 0.003162 µM): 0.553
- relative viability ([15]; first compound 0.01 µM): 0.494
- relative viability ([15]; first compound 0.03162 µM): 0.575
- relative viability ([15]; first compound 0.1 µM): 0.368
- relative viability ([16]; first compound 0.001 µM): 0.574
- relative viability ([16]; first compound 0.003162 µM): 0.685
- relative viability ([16]; first compound 0.01 µM): 0.649
- relative viability ([16]; first compound 0.03162 µM): 0.589
- relative viability ([16]; first compound 0.1 µM): 0.367
- relative viability ([17]; first compound 0.001 µM): 0.409
- relative viability ([17]; first compound 0.003162 µM): 0.526
- relative viability ([17]; first compound 0.01 µM): 0.39
- relative viability ([17]; first compound 0.03162 µM): 0.375
- relative viability ([17]; first compound 0.1 µM): 0.498
- relative viability ([18]; first compound 0.001 µM): 0.0733
- relative viability ([18]; first compound 0.003162 µM): 0.0599
- relative viability ([18]; first compound 0.01 µM): 0.0632
- relative viability ([18]; first compound 0.03162 µM): 0.0736
- relative viability ([18]; first compound 0.1 µM): 0.0505
- relative viability ([19]; first compound 0.001 µM): 0.187
- relative viability ([19]; first compound 0.003162 µM): 0.175
- relative viability ([19]; first compound 0.01 µM): 0.169
- relative viability ([19]; first compound 0.03162 µM): 0.144
- relative viability ([19]; first compound 0.1 µM): 0.152
- relative viability ([20]; first compound 0.001 µM): 0.358
- relative viability ([20]; first compound 0.003162 µM): 0.357
- relative viability ([20]; first compound 0.01 µM): 0.282
- relative viability ([20]; first compound 0.03162 µM): 0.216
- relative viability ([20]; first compound 0.1 µM): 0.165
